This assay has as its target T1, Arachidonate 5-lipoxygenase-activating protein (Homo sapiens, UniProt P20292).
T1 sequence (P20292 whole entry): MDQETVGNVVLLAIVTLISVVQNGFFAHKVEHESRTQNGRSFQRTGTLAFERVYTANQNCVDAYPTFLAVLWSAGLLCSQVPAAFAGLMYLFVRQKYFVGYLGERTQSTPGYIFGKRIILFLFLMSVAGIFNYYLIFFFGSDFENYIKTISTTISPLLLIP
The experiment in a line: Scintillation Proximity Assay: Compounds are assessed for the ability to bind to FLAP in a binding assay that measures compound-specific displacement of an iodinated (125I) FLAP inhibitor via a Scintillation Proximity Assay format (adapted from S. Charleson et al., Mol. Pharmacol., 1992, 41, 873-879).Cell pellets produced from sf9 insect cells expressing recombinant human FLAP protein are resuspended in buffer A [15 mM Tris-HCl (pH 7.5), 2 mM MgCl2, 0.3 mM EDTA, 1 mM PMSF]. The cells are lysed with a Dounce homogenizer and the material is centrifuged at 10,000xg for 10 minutes. The supernatant is then collected and centrifuged at 100,000xg for 60 minutes. To prepare membrane protein for an assay, an aliquot of the 100,000xg pellet is resuspended in 1 ml of buffer A, Dounce homogenized, and finally subjected to polytron mixing (30 seconds). Membrane protein (25 ul, 5 ug) is mixed with WGA SPA beads (Amersham) and stirred for 1 h. To an assay plate (Perkin Elmer FlexiPlate) is added 25 ul of test compound. (In general: SPA uses beads or plates that emit light when radiolabelled molecules are held near them.)

What is called IC50 is the point on the concentration scale where inhibition reaches its midpoint. As for `CC(C)(C)n1c(-c2ccccc2C(N)=O)nc2cc(-c3cnc(N)nc3)ccc21`, the IC50 is 35.4 nM.

Source of the values: ChEMBL document CHEMBL3639115, “Benzimidazole inhibitors of leukotriene production” (2014).
